Structures can show the parent of a compound that is named as a salt.
Assay: in vitro
Conditions: human, hek293t cells

SMILES	viability at 48 h, 25 µM
CC(Cl)C(=O)N1CC=C(C(F)(F)F)CC1 (stereo not drawn) [5-J19, 2-chloro-1-[4-(trifluoromethyl)-1,2,3,6-tetrahydropyridin-1-yl]propan-1-one]	118%
CC(C)N(Cc1ccccc1)C(=O)CCl [5-J20, N-benzyl-2-chloro-N-(propan-2-yl)acetamide]	1.21%
CC1CC(NC(=O)C(C)Cl)=NO1 (stereo not drawn) [5-J21, 2-chloro-N-(5-methyl-4,5-dihydro-1,2-oxazol-3-yl)propanamide]	97.1%
O=C(CCl)NC(=O)c1ccc(OC(F)F)cc1 [5-J22, N-(2-chloroacetyl)-4-(difluoromethoxy)benzamide]	108%
Cc1ccc(Cc2cnc(NC(=O)CCl)s2)cc1 [5-K03, 2-chloro-N-{5-[(4-methylphenyl)methyl]-1,3-thiazol-2-yl}acetamide]	-0.392%
CCC(=O)Nc1cccc(NC(=O)CCl)c1C [5-K04, N-[3-(2-chloroacetamido)-2-methylphenyl]propanamide]	2.12%
CC(Cl)C(=O)Nc1nc2ccccc2s1 (stereo not drawn) [5-K05, N-(1,3-benzothiazol-2-yl)-2-chloropropanamide]	59.9%
CCn1ccc(CN(C)C(=O)CCl)n1 [5-K06, 2-chloro-N-[(1-ethyl-1H-pyrazol-3-yl)methyl]-N-methylacetamide]	1.77%
N#Cc1ccc(OC2CN(C(=O)CCl)C2)cc1 [5-K07, 4-{[1-(2-chloroacetyl)azetidin-3-yl]oxy}benzonitrile]	0.233%
CN(Cc1ccccc1)S(=O)(=O)c1ccc(NC(=O)CCl)cc1 [5-K08, N-{4-[benzyl(methyl)sulfamoyl]phenyl}-2-chloroacetamide]	16.1%
O=C(CCl)N1c2ccc(F)cc2NC(=O)C12CCC2 [5-K09, 1'-(2-chloroacetyl)-6'-fluoro-3',4'-dihydro-1'H-spiro[cyclobutane-1,2'-quinoxalin]-3'-one]	0.346%
O=C(CCl)N1CCC1c1cccc(F)c1 (stereo not drawn) [5-K10, 2-chloro-1-[2-(3-fluorophenyl)azetidin-1-yl]ethan-1-one]	28.5%
CN(C)C(=O)c1cc2n(n1)CC1(CCN(C(=O)CCl)CC1)OC2 [5-K11, 1-(2-chloroacetyl)-N,N-dimethyl-4',7'-dihydrospiro[piperidine-4,6'-pyrazolo[3,2-c][1,4]oxazine]-2'-carboxamide]	0.714%
CC(O)CN(Cc1ccc(Cl)c(F)c1)C(=O)CCl (stereo not drawn) [5-K12, 2-chloro-N-[(4-chloro-3-fluorophenyl)methyl]-N-(2-hydroxypropyl)acetamide]	0.478%
Cc1ccc(N(C(=O)CCl)C2C=CS(=O)(=O)C2)cc1 (stereo not drawn) [5-K13, 2-chloro-N-(1,1-dioxo-2,3-dihydro-1lambda6-thiophen-3-yl)-N-(4-methylphenyl)acetamide]	0.562%
CC(NC(=O)CCl)C(=O)N1CCS(=O)(=O)CC1 (stereo not drawn) [5-K14, 2-chloro-N-[1-(1,1-dioxo-1lambda6-thiomorpholin-4-yl)-1-oxopropan-2-yl]acetamide]	86.7%
Cc1cc(C)c(NC(=O)C(C)Cl)c(C)c1 (stereo not drawn) [5-K15, 2-chloro-N-(2,4,6-trimethylphenyl)propanamide]	140%
NS(=O)(=O)c1cccc2cc(NC(=O)CCl)ccc12 [5-K16, 2-chloro-N-(5-sulfamoylnaphthalen-2-yl)acetamide]	1.61%
Cc1nc(-c2cccc(NC(=O)CCl)c2)cs1 [5-K17, 2-chloro-N-[3-(2-methyl-1,3-thiazol-4-yl)phenyl]acetamide]	13.2%
O=C(CCl)N1CCC(Cc2nc(-c3ccc(F)cn3)no2)CC1 [5-K18, 2-chloro-1-(4-{[3-(5-fluoropyridin-2-yl)-1,2,4-oxadiazol-5-yl]methyl}piperidin-1-yl)ethan-1-one]	1.83%
CC(Cl)C(=O)N(Cc1ccccc1)Cc1ccccc1 (stereo not drawn) [5-K19, N,N-dibenzyl-2-chloropropanamide]	82.1%
Cc1ccc(C)c(CN(CCO)C(=O)CCl)c1 [5-K20, 2-chloro-N-[(2,5-dimethylphenyl)methyl]-N-(2-hydroxyethyl)acetamide]	2.44%
CC(Cl)C(=O)N1CCC(Cc2ccccc2)CC1 (stereo not drawn) [5-K21, 1-(4-benzylpiperidin-1-yl)-2-chloropropan-1-one]	86.2%
O=C(CCl)Nc1ccc(S(=O)(=O)Nc2ccccc2)cc1 [5-K22, 2-chloro-N-[4-(phenylsulfamoyl)phenyl]acetamide]	1.09%
O=C(CCl)N(Cc1ccccc1)Cc1cc2n(n1)CCCC2 [5-L03, N-benzyl-2-chloro-N-({4H,5H,6H,7H-pyrazolo[1,5-a]pyridin-2-yl}methyl)acetamide]	0.904%
O=C(CCl)N1N=C(c2ccc(Cl)cc2)CC1c1ccco1 (stereo not drawn) [5-L04, 2-chloro-1-[3-(4-chlorophenyl)-5-(furan-2-yl)-4,5-dihydro-1H-pyrazol-1-yl]ethan-1-one]	-0.215%
C[C@H]1CN(C(=O)CCl)CCN1C(=O)c1cscn1 [5-L05, 2-chloro-1-[(3S)-3-methyl-4-(1,3-thiazole-4-carbonyl)piperazin-1-yl]ethan-1-one]	2.69%

SMILES	viability at 48 h, 25 µM
O=C(CCl)NCc1ccccc1CN1CCOCC1 [5-L06, 2-chloro-N-({2-[(morpholin-4-yl)methyl]phenyl}methyl)acetamide hydrochloride]	1.46%
CCN(Cc1ccc2c(c1)OCO2)C(=O)CCl [5-L07, N-[(1,3-dioxaindan-5-yl)methyl]-2-chloro-N-ethylacetamide]	0.477%
O=C(CCc1ccccc1)NC1CCN(C(=O)CCl)CC1 [5-L08, N-[1-(2-chloroacetyl)piperidin-4-yl]-3-phenylpropanamide]	1.18%
O=C(CCl)NCCc1cccs1 [5-L09, 2-chloro-N-[2-(thiophen-2-yl)ethyl]acetamide]	90.7%
CC(Cl)C(=O)Nc1ccccc1F (stereo not drawn) [5-L10, 2-chloro-N-(2-fluorophenyl)propanamide]	99.2%
CC(NC(=O)CCl)c1cc(F)ccc1N(C)C (stereo not drawn) [5-L11, 2-chloro-N-{1-[2-(dimethylamino)-5-fluorophenyl]ethyl}acetamide]	9.52%
CC(Cl)C(=O)Nc1cccc(S(=O)(=O)N2CCCCC2)c1 (stereo not drawn) [5-L12, 2-chloro-N-[3-(piperidine-1-sulfonyl)phenyl]propanamide]	98.7%
Cc1nn(CC(C)C)c(Cl)c1C1CCCN1C(=O)CCl (stereo not drawn) [5-L13, 2-chloro-1-{2-[5-chloro-3-methyl-1-(2-methylpropyl)-1H-pyrazol-4-yl]pyrrolidin-1-yl}ethan-1-one]	0.964%
O=C(CCl)NCc1ccc(C(=O)N2CCOCC2)cc1 [5-L14, 2-chloro-N-{[4-(morpholine-4-carbonyl)phenyl]methyl}acetamide]	67.7%
CC(Cl)C(=O)NC(C)c1cnn(CC2CCC2)c1 (stereo not drawn) [5-L15, 2-chloro-N-{1-[1-(cyclobutylmethyl)-1H-pyrazol-4-yl]ethyl}propanamide]	108%
O=C(CCl)NC(c1ccccc1)C1CC1 (stereo not drawn) [5-L16, 2-chloro-N-[cyclopropyl(phenyl)methyl]acetamide]	116%
CC(Cl)C(=O)N(C)Cc1ccnn1C (stereo not drawn) [5-L17, 2-chloro-N-methyl-N-[(1-methyl-1H-pyrazol-5-yl)methyl]propanamide]	134%
Cc1nc(C#N)c(N2CCN(C(=O)CCl)CC2)o1 [5-L18, 5-[4-(2-chloroacetyl)piperazin-1-yl]-2-methyl-1,3-oxazole-4-carbonitrile]	1.74%
CC(Cl)C(=O)Nc1ccc2oc(=O)n(CCN(C)C)c2c1 (stereo not drawn) [5-L19, 2-chloro-N-{3-[2-(dimethylamino)ethyl]-2-oxo-2,3-dihydro-1,3-benzoxazol-5-yl}propanamide]	109%
COc1ccccc1NC(=O)C(C)Cl (stereo not drawn) [5-L20, 2-chloro-N-(2-methoxyphenyl)propanamide]	91.3%
CC(Cl)C(=O)NCc1conc1C1CCC1 (stereo not drawn) [5-L21, 2-chloro-N-[(3-cyclobutyl-1,2-oxazol-4-yl)methyl]propanamide]	101%
CC(Cl)C(=O)Nc1ncc(C(F)(F)F)cc1Cl (stereo not drawn) [5-L22, 2-chloro-N-[3-chloro-5-(trifluoromethyl)pyridin-2-yl]propanamide]	105%
CC(Cl)C(=O)NCCN1C(=O)CSC1=O (stereo not drawn) [5-M03, 2-chloro-N-[2-(2,4-dioxo-1,3-thiazolidin-3-yl)ethyl]propanamide]	87.2%
CC(c1cnn(C)c1)N(C)C(=O)CCl (stereo not drawn) [5-M04, 2-chloro-N-methyl-N-[1-(1-methyl-1H-pyrazol-4-yl)ethyl]acetamide]	1.55%
C=CCN(Cc1ccc(Cl)s1)C(=O)CCl [5-M05, 2-chloro-N-[(5-chlorothiophen-2-yl)methyl]-N-(prop-2-en-1-yl)acetamide]	0.327%
CC(NC(=O)CCl)C(=O)N1CCCCC1C (stereo not drawn) [5-M06, 2-chloro-N-[1-(2-methylpiperidin-1-yl)-1-oxopropan-2-yl]acetamide]	104%
Cc1ccc(NC(=O)C2CSCN2C(=O)CCl)c(C)c1 (stereo not drawn) [5-M07, 3-(2-chloroacetyl)-N-(2,4-dimethylphenyl)-1,3-thiazolidine-4-carboxamide]	0.0812%
Cc1csc(COC2CCN(C(=O)CCl)C2)n1 (stereo not drawn) [5-M08, 2-chloro-1-{3-[(4-methyl-1,3-thiazol-2-yl)methoxy]pyrrolidin-1-yl}ethan-1-one]	1.8%
O=C(CCl)NC1CCSc2ccc(F)cc21 (stereo not drawn) [5-M09, 2-chloro-N-(6-fluoro-3,4-dihydro-2H-1-benzothiopyran-4-yl)acetamide]	0.504%
O=C(CCl)N1CCCC1c1nc(Cc2ccc(F)cc2)no1 (stereo not drawn) [5-M10, 2-chloro-1-(2-{3-[(4-fluorophenyl)methyl]-1,2,4-oxadiazol-5-yl}pyrrolidin-1-yl)ethan-1-one]	0.55%
O=C(CCl)N1C2CCC1c1ccccc12 [5-M11, 1-{11-azatricyclo[6.2.1.0,2,7]undeca-2,4,6-trien-11-yl}-2-chloroethan-1-one]	-0.105%
CC(C)C(C)N(Cc1ccns1)C(=O)CCl (stereo not drawn) [5-M12, 2-chloro-N-(3-methylbutan-2-yl)-N-[(1,2-thiazol-5-yl)methyl]acetamide]	9.67%

Source: publication PMC11995724, “Antibiotic target discovery by integrated phenotypic and activity-based profiling of electrophilic fragments” (Cell chemical biology, 2025)
